Values joined by “and” are separate entries in the source; they are usually repeats but may differ in a detail not shown here. Equal entries are not always repeated.
Tests used:
[1] = Cell viability (MTT assay); format: cell-based, murine; conditions: mouse, 4T1 mammary carcinoma cells
Description: (§1) In total, 10 × 10^5 U87MG human glioblastoma, patient-derived glioma cells 3054 and 3060, HEK293T human embryonic kidney, 4T1 murine mammary carcinoma, human fetal astrocytes cell lines were plated in their respective medium and treated for 72 h with our fluorescent probe 10 and 11, solubilized in DMSO in a final concentration of […]. We treated controls with DMSO in the same final concentration and we compared the viability of each treatment to controls. The viability of cells was measured using the 3-(4,5-dimethylthiazol-2-yl)-2,5-diphenyltetrazolium assay (MTT assay)[23].

[2] = system: 4T1 murine mammary carcinoma; assay: Cell viability (MTT assay); format: cell-based; conditions: 10uM, 72 h
Description: as §1

[3] = system: patient-derived glioma cells 3054; assay: Cell viability (MTT assay); format: cell-based, human; conditions: 3054; 10uM, 72 h
Description: as §1

[4] = system: U87MG human glioblastoma; assay: Cell viability (MTT assay); format: cell-based; conditions: 10uM, 72 h
Description: as §1

[5] = Cell viability (MTT assay); format: cell-based, human; conditions: human
Description: as §1

[6] = system: human fetal astrocytes; assay: Cell viability (MTT assay); format: cell-based; conditions: hASTRO; 10uM, 72 h
Description: as §1

[7] = system: HEK293T human embryonic kidney; assay: Cell viability (MTT assay); format: cell-based; conditions: 10uM, 72 h
Description: as §1

[8] = system: patient-derived glioma cells 3060; assay: Cell viability (MTT assay); format: cell-based, human; conditions: 3060; 10uM, 72 h
Description: as §1

[9] = system: U87MG, 3054, 3060, HEK293T, 4T1, human fetal astrocytes; assay: Cell viability (MTT assay), all cell lines of Fig. 6a; format: cell-based; conditions: 10 µM, 72 h
Description: as §1

[10] = system: patient-derived glioma cell 3054; assay: Fluorescent microscopy of probe in cells; format: cell-based, human; conditions: 10 µM
[11] = system: HEK293T cells; assay: Fluorescent microscopy of probe in cells; format: cell-based, human; conditions: 10 µM, 2 h (Fig. 5g)
Description: In total, 20,000 cells/ml of U87MG, HEK293T, hASTRO and 4T1 were seeded onto glass cover slips in 24-well plates. The cells incubated at 37 °C in a 5% CO2 atmosphere overnight. Cells were washed with 1 ml of PBS buffer two times, then a 10 μM solution of probes was added to each well for 2 h. For nuclei staining, 1 µg/ml of DAPI was added the last 15 min of treatment. The cover slips were removed and washed with PBS buffer, and fixed with 0.5 ml of 4% formaldehyde solution for 10 min. The cover slips were washed with 1 ml of PBS, then slides were prepared using Mounting Media (Merck Life Science). Fluorescence images were acquired using a Leica THUNDER Imager 3D Live Cell (Leica Microsystems, Wetzlar, Germany) microscope equipped with an S Fluor 40×/1.3 objective using the LAS X software.

[12] = LC-HRMS analysis, enzymatic assay buffer + probe without enzyme; conditions: 1 h
Description: These analyses were carried out by using UPLC-HRMS procedure with Vanquish UPLC system coupled to a Thermo Scientific Q-Exactive Plus, operating in negative electrospray ionization mode. The chromatographic separation was carried out using a Phenomenex Synergi 4 µ Polar-RP 80 A (150 × 2 mm) equipped with a Phenomenex Polar-RP (4 mm × 2 mm) security guard column. The mobile phase consisted of A: acetonitrile 0.1% formic acid and B: 0.1% formic acid. We used a linear elution gradient, starting from 80% of A to 5% A in 3 min, 3 min at 5% A, an equilibration of 4 min for a total run time of 10.00 min, at 300 µl/min flow rate. The autosampler temperature was set at 15 °C, the injection volume was 5 µl and column was maintained at 40 °C. […] Before injecting the samples, the blanks in the list were analyzed and every biological sample was analyzed in duplicate. The biological samples analyzed were as follow: (1) Enzymatic assay Buffer; (2) Enzymatic assay Buffer + NAD^+; (3) Enzymatic assay Buffer + Probe 10 or Probe 11; (4) Enzymatic assay Buffer + ALDH1A1; (5) Enzymatic assay Buffer + ALDH1A2; (6) Enzymatic assay Buffer + ALDH1A3; (7) Enzymatic assay Buffer + ALDH1A1 + Probe 10 or Probe 11; (8) Enzymatic assay Buffer + ALDH1A2 + Probe 10 or Probe 11; (9) Enzymatic assay Buffer + ALDH1A3 + Probe 10 or Probe 11. […]

Compound: COc1cc(/C=C/C(O)=C/C(=O)/C=C/c2ccc(OCc3cn(CCOc4ccc(C=O)cc4)nn3)c(OC)c2)ccc1O [Probe 10]
- viability at 72 h, 10 µM [1]: 83.6%
- % cell viability [2]: 86.9788% and 85.5694% and 83.5736% and 83.6921% and 86.8788% and 85.6693% and 83.8736%
- % cell viability [3]: 92.2458% and 92.6485% and 92.3652% and 91.8745% and 92.3458% and 92.5485% and 92.2652%
- % cell viability [4]: 87.4968% and 85.4873% and 86.3577% and 86.8785% and 87.5968% and 85.3873% and 86.4577%
- viability at 72 h, 10 µM ([5]; HEK293T embryonic kidney cells): 96.8%
- viability at 72 h, 10 µM ([5]; U87MG glioblastoma cells): 86.8%
- viability at 72 h, 10 µM ([5]; human fetal astrocytes, hASTRO): 85.3%
- viability at 72 h, 10 µM ([5]; patient-derived glioma cells 3054, 3054): 91.4%
- viability at 72 h, 10 µM ([5]; patient-derived glioma cells 3060, 3060): 91.2%
- % cell viability [6]: 80.9182% and 84.1614% and 88.5188% and 85.4535% and 80.8182% and 84.0614% and 88.4188%
- % cell viability [7]: 84.6125% and 86.4467% and 91.2307% and 96.8963% and 84.5125% and 86.3467% and 91.1307%
- % cell viability [8]: 90.8745% and 90.3258% and 91.3365% and 91.3478% and 90.9745% and 90.4258% and 91.2365%
- cell mortality [9]: unable to induce cell mortality
- fluorescence in cells ([10]; 2 h): can determine fluorescence
- If ROI ([10]; 3054, 2 h (Fig. 5g)): 223.52 a.u. and 222.87 a.u. and 254.268 a.u. and 245.65 a.u. and 230.548 a.u.
- If ROI [11]: 64.441 a.u. and 43.961 a.u. and 59.771 a.u. and 72.091 a.u. and 46.461 a.u.
- AREA TIC of Probe 10 [12]: 9480149 and 10113371 and 16727419 and 14473716
